Source: the supplement of paper PMC11451515

System: SEM cells
Experiment: cell viability relative to DMSO control; higher = less cytotoxic
Settings: 48 h
How it was run: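 NOMO1 or SEM cells were plated at 500 cells/well and P12-Ichikawa cells at 1000 cells/well in 1536-well plates (5 μl), after each leukemia line had been adapted for at least four passages in each medium. Pin dosing delivered library compounds in DMSO at 11 threefold concentrations, 47 μM to 0.79 nM. CellTiter-Glo One luminescence was read after 48 h at 37°C. Viability is reported as a per-plate percentage of DMSO wells, with cell-free wells as background.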

[1] = HPLM + 10% dialyzed FBS, 0.000781 µM
[2] = HPLM + 10% dialyzed FBS, 0.00234 µM
[3] = HPLM + 10% dialyzed FBS, 0.00702 µM
[4] = HPLM + 10% dialyzed FBS, 0.0211 µM
[5] = HPLM + 10% dialyzed FBS, 0.0632 µM
[6] = HPLM + 10% dialyzed FBS, 0.19 µM
[7] = HPLM + 10% dialyzed FBS, 0.569 µM
[8] = HPLM + 10% dialyzed FBS, 1.71 µM
[9] = HPLM + 10% dialyzed FBS, 5.12 µM
[10] = HPLM + 10% dialyzed FBS, 15.4 µM
[11] = HPLM + 10% dialyzed FBS, 46.1 µM
[12] = RPMI 5 mM glucose + 10% FBS, 0.000781 µM
[13] = RPMI 5 mM glucose + 10% FBS, 0.00234 µM
[14] = RPMI 5 mM glucose + 10% FBS, 0.00702 µM
[15] = RPMI 5 mM glucose + 10% FBS, 0.0211 µM
[16] = RPMI 5 mM glucose + 10% FBS, 0.0632 µM
[17] = RPMI 5 mM glucose + 10% FBS, 0.19 µM
[18] = RPMI 5 mM glucose + 10% FBS, 0.569 µM
[19] = RPMI 5 mM glucose + 10% FBS, 1.71 µM
[20] = RPMI 5 mM glucose + 10% FBS, 5.12 µM
[21] = RPMI 5 mM glucose + 10% FBS, 15.4 µM
[22] = RPMI 5 mM glucose + 10% FBS, 46.1 µM
[23] = RPMI 5 mM glucose + 10% dialyzed FBS, 0.000781 µM
[24] = RPMI 5 mM glucose + 10% dialyzed FBS, 0.00234 µM
[25] = RPMI 5 mM glucose + 10% dialyzed FBS, 0.00702 µM
[26] = RPMI 5 mM glucose + 10% dialyzed FBS, 0.0211 µM
[27] = RPMI 5 mM glucose + 10% dialyzed FBS, 0.0632 µM
[28] = RPMI 5 mM glucose + 10% dialyzed FBS, 0.19 µM
[29] = RPMI 5 mM glucose + 10% dialyzed FBS, 0.569 µM
[30] = RPMI 5 mM glucose + 10% dialyzed FBS, 1.71 µM
[31] = RPMI 5 mM glucose + 10% dialyzed FBS, 5.12 µM
[32] = RPMI 5 mM glucose + 10% dialyzed FBS, 15.4 µM
[33] = RPMI 5 mM glucose + 10% dialyzed FBS, 46.1 µM

Row | Structure (SMILES) | cell viability [1] [%] | cell viability [2] [%] | cell viability [3] [%] | cell viability [4] [%] | cell viability [5] [%] | cell viability [6] [%] | cell viability [7] [%] | cell viability [8] [%] | cell viability [9] [%] | cell viability [10] [%] | cell viability [11] [%] | cell viability [12] [%] | cell viability [13] [%] | cell viability [14] [%] | cell viability [15] [%] | cell viability [16] [%] | cell viability [17] [%] | cell viability [18] [%] | cell viability [19] [%] | cell viability [20] [%] | cell viability [21] [%] | cell viability [22] [%] | cell viability [23] [%] | cell viability [24] [%] | cell viability [25] [%] | cell viability [26] [%] | cell viability [27] [%] | cell viability [28] [%] | cell viability [29] [%] | cell viability [30] [%] | cell viability [31] [%] | cell viability [32] [%] | cell viability [33] [%]
1 | CCOc1cc(N)c(Cl)cc1C(=O)NCC1CN(Cc2ccc(F)cc2)CCO1 (stereo not drawn) | 85.4 | 110 | 104 | 100 | 109 | 112 | 128 | 114 | 118 | 119 | 132 | 99.8 | 113 | 107 | 116 | 114 | 114 | 95.5 | 115 | 109 | 94.7 | 90.3 | 113 | 110 | 100 | 109 | 119 | 122 | 112 | 115 | 105 | 104 | 92.5
2 | C=CC1=C(C(=O)O)N2C(=O)[C@@H](NC(=O)/C(=N\O)c3csc(N)n3)[C@H]2SC1 | 80.6 | 81.9 | 20.4 | 86.1 | 87.3 | 98.9 | 89.8 | 91.1 | 83.1 | 93.4 | 95.7 | 87.5 | 107 | 10.3 | 104 | 96.7 | 109 | 102 | 108 | 121 | 98.7 | 106 | 83.1 | 86.6 | 27.4 | 108 | 94.5 | 107 | 97.1 | 101 | 116 | 112 | 101
3 | CC\1=C(C(=O)N(\C=C1)C2=CC=C(C=C2)C3=NC=CO3)/C4=CC5=CN=C(N)N=C5C=C4 | 96.2 | 95 | 109 | 99.8 | 100 | 103 | 76.2 | 84 | 40.8 | 36 | 27 | 87.3 | 115 | 127 | 121 | 108 | 111 | 97.4 | 101 | 38.5 | 29.5 | 21.3 | 90 | 104 | 118 | 102 | 97.1 | 97.4 | 68.9 | 72.1 | 26.1 | 20.4 | 19.1
4 | OC[C@H](Cc1ccccc1)Nc1nc(Oc2ccc3c(c2)CCC3)nc2c1ncn2Cc1ccc(-c2ccccc2)cc1 | 90.7 | 101 | 98.5 | 107 | 108 | 78.4 | 105 | 99.2 | 103 | 80.3 | 62.9 | 85.3 | 85.9 | 91.7 | 93.8 | 89.5 | 89.2 | 95 | 97.9 | 94.7 | 80.7 | 76.7 | 80 | 97.8 | 94.3 | 89.5 | 92.4 | 89.2 | 100 | 101 | 88.5 | 84.4 | 69.9
5 | CN(C)CCc1c[nH]c2ccc(C[C@H]3COC(=O)N3)cc12 | 72 | 89.4 | 97.7 | 95.1 | 99.3 | 108 | 96 | 88.2 | 72.9 | 29.7 | 7.45 | 78.3 | 85.5 | 89 | 97 | 90.9 | 88.7 | 88.2 | 73.8 | 47.8 | 13.3 | 5.94 | 88.8 | 94 | 89.5 | 99.8 | 95.7 | 96.3 | 93.7 | 80.8 | 75.6 | 26 | 7.13
6 | CNC1[C@@H](O)C(O[C@@H]2C(O)C(O[C@H]3O[C@H]([C@@H](C)NC)CC[C@H]3N)[C@@H](N)C[C@H]2N)OC[C@]1(C)O (stereo partly drawn) | 99.8 | 96.4 | 99.2 | 95.1 | 113 | 106 | 93.2 | 97.7 | 92.9 | 88.5 | 80.8 | 105 | 120 | 94.2 | 101 | 92.2 | 103 | 97.9 | 83.3 | 90.4 | 86.1 | 98 | 102 | 101 | 98.4 | 106 | 99.3 | 104 | 106 | 108 | 85.7 | 114 | 91.7
7 | C[C@@]12O[C@@H](C[C@]1(O)CO)n1c3ccccc3c3c4c(c5c6ccccc6n2c5c31)CNC4=O | 117 | 125 | 127 | 109 | 89.7 | 65.5 | 27.3 | 18.4 | 14.8 | 11.8 | 7.23 |  |  |  |  |  |  |  |  |  |  |  | 118 | 111 | 96.4 | 106 | 65 | 52.1 | 20.2 | 13 | 8.04 | 6.86 | 5.81
8 | Oc1ccc(C2CCN(c3ccnc4ccccc34)CC2)cc1O | 55.8 | 98.9 | 88.8 | 93.5 | 118 | 94.1 | 95.4 | 89.5 | 76.6 | 56.3 | 30.7 | 56.9 | 98 | 93.6 | 94.6 | 106 | 116 | 96.7 | 83 | 62.3 | 43.9 | 13.6 | 54.9 | 92.2 | 97.3 | 114 | 114 | 115 | 88.7 | 96.2 | 59.1 | 45.9 | 39.2
